Experimental findings from patent US20150183827A1, “CELL PENETRATING PEPTIDES & METHODS OF IDENTIFYING CELL PENETRATING PEPTIDES” (Hoffmann-La Roche Inc., priority 2012, published 2015) are described below.

The subject of this assay is H460 cells. Description: cell penetration of FITC-tagged peptides in H460 cells (confocal fluorescence imaging). Format: cell-based. As to conditions: 3 μm, 2 hours, FIGS. 3A-3B. On the procedure: The peptides of Examples 1-19 were tested for cell penetration in H460 and HeLa cell lines as follows.
The H460 cell line and HeLa (ATCC) were maintained in growth media then passaged every 2-3 days. Growth media for H460 was RPMI 1640, 10% fetal calf serum, sodium pyruvate, antibiotics and glutamine (GIBCO). Growth media for HeLa cells was DMEM supplemented with 10% heat-inactivated fetal calf serum, antibiotics and glutamine (GIBCO).
Cells were plated onto Whatman glass-bottom 96-well plates or Perkin Elmer glass-bottom 96-well plates and cultured overnight. Peptide stocks were prepared in DMSO and were diluted in cell growth media for cellular uptake studies. After 2 and 24 h of peptide incubation at various concentrations, media was removed followed by three washes of acidic saline. Formaldehyde fixation, with or without Hoechst 33342 dye solution (to stain nuclei), was followed by PBS washes. Plates were imaged on the Operetta High Content Imaging system in confocal fluorescence mode using the 40×water immersion high NA objective.

* marks the point of attachment. FITC = O=C1OC2(c3ccc(O)cc3Oc3cc(O)ccc32)c2ccc(NC(=S)*)cc21; Ahx = NCCCCCC(=O)O

Consider “FITC-6Ahx-KVFSPKKKMEFFLLF-NH2 ({FITC-Ahx}-KVFSPKKKMEFFLLF-NH2; SMILES CSCC[C@H](NC(=O)[C@H](CCCCN)NC(=O)[C@H](CCCCN)NC(=O)[C@H](CCCCN)NC(=O)[C@@H]1CCCN1C(=O)[C@H](CO)NC(=O)[C@H](Cc1ccccc1)NC(=O)[C@@H](NC(=O)[C@H](CCCCN)NC(=O)CCCCCNC(=S)Nc1ccc2c(c1)C(=O)OC21c2ccc(O)cc2Oc2cc(O)ccc21)C(C)C)C(=O)N[C@@H](CCC(=O)O)C(=O)N[C@@H](Cc1ccccc1)C(=O)N[C@@H](Cc1ccccc1)C(=O)N[C@@H](CC(C)C)C(=O)N[C@@H](CC(C)C)C(=O)N[C@@H](Cc1ccccc1)C(N)=O) [Example 12]”, for which the “cell penetration as determined by the fluorescence” value (“cell penetration as determined” for short) is “low but still cell penetrating”.

Consider “FITC-6Ahx-LLPQWPRIRHIKLLR-NH2 ({FITC-Ahx}-LLPQWPRIRHIKLLR-NH2; SMILES CC[C@H](C)[C@H](NC(=O)[C@H](Cc1c[nH]cn1)NC(=O)[C@H](CCCNC(=N)N)NC(=O)[C@@H](NC(=O)[C@H](CCCNC(=N)N)NC(=O)[C@@H]1CCCN1C(=O)[C@H](Cc1c[nH]c2ccccc12)NC(=O)[C@H](CCC(N)=O)NC(=O)[C@@H]1CCCN1C(=O)[C@H](CC(C)C)NC(=O)[C@H](CC(C)C)NC(=O)CCCCCNC(=S)Nc1ccc2c(c1)C(=O)OC21c2ccc(O)cc2Oc2cc(O)ccc21)[C@@H](C)CC)C(=O)N[C@@H](CCCCN)C(=O)N[C@@H](CC(C)C)C(=O)N[C@@H](CC(C)C)C(=O)N[C@@H](CCCNC(=N)N)C(N)=O) [Example 19]”, for which the “cell penetration as determined” value is “low but still cell penetrating”.

As for “FITC-6Ahx-MRMIRFRKKIPYLRY-NH2 ({FITC-Ahx}-MRMIRFRKKIPYLRY-NH2; SMILES CC[C@H](C)[C@H](NC(=O)[C@H](CCSC)NC(=O)[C@H](CCCNC(=N)N)NC(=O)[C@H](CCSC)NC(=O)CCCCCNC(=S)Nc1ccc2c(c1)C(=O)OC21c2ccc(O)cc2Oc2cc(O)ccc21)C(=O)N[C@@H](CCCNC(=N)N)C(=O)N[C@@H](Cc1ccccc1)C(=O)N[C@@H](CCCNC(=N)N)C(=O)N[C@@H](CCCCN)C(=O)N[C@@H](CCCCN)C(=O)N[C@H](C(=O)N1CCC[C@H]1C(=O)N[C@@H](Cc1ccc(O)cc1)C(=O)N[C@@H](CC(C)C)C(=O)N[C@@H](CCCNC(=N)N)C(=O)N[C@@H](Cc1ccc(O)cc1)C(N)=O)[C@@H](C)CC) [Example 14]”, the “cell penetration as determined” value is “low but still cell penetrating”.

For the substance “FITC-6Ahx-VKIWFQNRRVRWRKR-NH2 ({FITC-Ahx}-VKIWFQNRRVRWRKR-NH2; SMILES CC[C@H](C)[C@H](NC(=O)[C@H](CCCCN)NC(=O)[C@@H](NC(=O)CCCCCNC(=S)Nc1ccc2c(c1)C(=O)OC21c2ccc(O)cc2Oc2cc(O)ccc21)C(C)C)C(=O)N[C@@H](Cc1c[nH]c2ccccc12)C(=O)N[C@@H](Cc1ccccc1)C(=O)N[C@@H](CCC(N)=O)C(=O)N[C@@H](CC(N)=O)C(=O)N[C@@H](CCCNC(=N)N)C(=O)N[C@@H](CCCNC(=N)N)C(=O)N[C@H](C(=O)N[C@@H](CCCNC(=N)N)C(=O)N[C@@H](Cc1c[nH]c2ccccc12)C(=O)N[C@@H](CCCNC(=N)N)C(=O)N[C@@H](CCCCN)C(=O)N[C@@H](CCCNC(=N)N)C(N)=O)C(C)C) [Example 13]”, the “cell penetration as determined” value is given as “medium”.
